Measured values: BindingDB's records for doi:10.1074/jbc.M113.507525 (Western University, 2013)

What was measured:
Assay in all cases: SelectScreen Biochemical Kinase Assay
[1] = molecular target: DNA-dependent protein kinase catalytic subunit (Mus musculus, UniProt P97313)
Method: (§1) Biochemical in vitro lipid kinase assays were performed by the SelectScreen biochemical kinase assay service (Invitrogen Ltd.). A stock solution of GS-9820 was prepared in DMSO at a concentration of 10 mM. Ten-point kinase inhibitory activities were measured over a concentration range (5 to 10^4 nM) with ATP at a concentration consistent with the Km of each of the enzymes.

[2] = molecular target: Phosphatidylinositol 4-phosphate 5-kinase type-1 alpha (Mus musculus, UniProt P70182)
Sequence of Phosphatidylinositol 4-phosphate 5-kinase type-1 alpha (P70182 whole entry): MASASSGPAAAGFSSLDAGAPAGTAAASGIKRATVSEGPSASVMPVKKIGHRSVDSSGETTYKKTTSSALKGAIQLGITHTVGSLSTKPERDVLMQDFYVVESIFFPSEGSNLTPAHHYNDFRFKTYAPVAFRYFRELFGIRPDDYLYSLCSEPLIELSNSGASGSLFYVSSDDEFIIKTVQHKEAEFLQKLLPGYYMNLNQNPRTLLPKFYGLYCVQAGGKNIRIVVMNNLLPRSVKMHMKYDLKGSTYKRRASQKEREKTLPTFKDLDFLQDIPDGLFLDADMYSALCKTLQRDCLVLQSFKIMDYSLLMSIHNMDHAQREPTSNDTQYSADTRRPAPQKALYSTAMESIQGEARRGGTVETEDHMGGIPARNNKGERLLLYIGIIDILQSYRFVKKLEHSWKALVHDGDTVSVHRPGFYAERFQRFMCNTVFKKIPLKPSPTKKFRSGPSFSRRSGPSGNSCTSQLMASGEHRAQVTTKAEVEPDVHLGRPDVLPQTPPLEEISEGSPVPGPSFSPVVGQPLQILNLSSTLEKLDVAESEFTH
Method: as §1

[3] = molecular target: Phosphatidylinositol 4,5-bisphosphate 3-kinase catalytic subunit gamma isoform (Mus musculus, UniProt Q9JHG7)
Method: as §1

[4] = molecular target: Phosphatidylinositol 4,5-bisphosphate 3-kinase catalytic subunit alpha isoform (Mus musculus, UniProt P42337)
Method: as §1

[5] = molecular target: Phosphatidylinositol 4,5-bisphosphate 3-kinase catalytic subunit beta isoform (Mus musculus, UniProt Q8BTI9)
Method: as §1

[6] = molecular target: Phosphatidylinositol 4-phosphate 5-kinase type-1 beta (Mus musculus, UniProt P70181)
Method: as §1

[7] = molecular target: T1, Phosphatidylinositol 4,5-bisphosphate 3-kinase catalytic subunit delta isoform (Mus musculus, UniProt O35904)
T1 sequence (O35904 whole entry): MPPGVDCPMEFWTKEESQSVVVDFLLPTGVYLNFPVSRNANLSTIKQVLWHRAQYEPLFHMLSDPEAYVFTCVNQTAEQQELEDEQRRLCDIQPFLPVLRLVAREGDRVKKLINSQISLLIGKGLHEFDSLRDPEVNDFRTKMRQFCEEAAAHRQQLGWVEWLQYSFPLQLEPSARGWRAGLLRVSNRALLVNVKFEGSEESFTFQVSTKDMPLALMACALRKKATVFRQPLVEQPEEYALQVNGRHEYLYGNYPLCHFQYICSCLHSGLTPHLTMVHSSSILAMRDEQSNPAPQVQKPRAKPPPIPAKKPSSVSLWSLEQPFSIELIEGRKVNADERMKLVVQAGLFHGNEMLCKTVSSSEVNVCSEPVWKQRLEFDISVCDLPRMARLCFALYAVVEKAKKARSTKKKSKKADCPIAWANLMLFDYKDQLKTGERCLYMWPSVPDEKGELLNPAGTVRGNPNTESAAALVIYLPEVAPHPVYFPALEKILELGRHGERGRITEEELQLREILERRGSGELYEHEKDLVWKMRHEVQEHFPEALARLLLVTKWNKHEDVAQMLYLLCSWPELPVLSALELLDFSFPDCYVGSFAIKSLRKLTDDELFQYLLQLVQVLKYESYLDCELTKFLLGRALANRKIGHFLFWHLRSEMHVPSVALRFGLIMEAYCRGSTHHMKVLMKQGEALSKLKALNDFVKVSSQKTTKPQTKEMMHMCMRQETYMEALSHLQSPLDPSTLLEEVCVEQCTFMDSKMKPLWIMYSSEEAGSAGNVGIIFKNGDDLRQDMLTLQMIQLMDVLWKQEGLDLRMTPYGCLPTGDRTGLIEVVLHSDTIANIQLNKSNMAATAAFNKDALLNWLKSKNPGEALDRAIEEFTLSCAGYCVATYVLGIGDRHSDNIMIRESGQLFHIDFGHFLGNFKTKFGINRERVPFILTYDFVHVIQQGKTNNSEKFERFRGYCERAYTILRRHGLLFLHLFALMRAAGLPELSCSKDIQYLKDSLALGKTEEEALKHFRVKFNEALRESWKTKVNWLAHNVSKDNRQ
Method: as §1

Sequence of DNA-dependent protein kinase catalytic subunit (P97313 whole entry): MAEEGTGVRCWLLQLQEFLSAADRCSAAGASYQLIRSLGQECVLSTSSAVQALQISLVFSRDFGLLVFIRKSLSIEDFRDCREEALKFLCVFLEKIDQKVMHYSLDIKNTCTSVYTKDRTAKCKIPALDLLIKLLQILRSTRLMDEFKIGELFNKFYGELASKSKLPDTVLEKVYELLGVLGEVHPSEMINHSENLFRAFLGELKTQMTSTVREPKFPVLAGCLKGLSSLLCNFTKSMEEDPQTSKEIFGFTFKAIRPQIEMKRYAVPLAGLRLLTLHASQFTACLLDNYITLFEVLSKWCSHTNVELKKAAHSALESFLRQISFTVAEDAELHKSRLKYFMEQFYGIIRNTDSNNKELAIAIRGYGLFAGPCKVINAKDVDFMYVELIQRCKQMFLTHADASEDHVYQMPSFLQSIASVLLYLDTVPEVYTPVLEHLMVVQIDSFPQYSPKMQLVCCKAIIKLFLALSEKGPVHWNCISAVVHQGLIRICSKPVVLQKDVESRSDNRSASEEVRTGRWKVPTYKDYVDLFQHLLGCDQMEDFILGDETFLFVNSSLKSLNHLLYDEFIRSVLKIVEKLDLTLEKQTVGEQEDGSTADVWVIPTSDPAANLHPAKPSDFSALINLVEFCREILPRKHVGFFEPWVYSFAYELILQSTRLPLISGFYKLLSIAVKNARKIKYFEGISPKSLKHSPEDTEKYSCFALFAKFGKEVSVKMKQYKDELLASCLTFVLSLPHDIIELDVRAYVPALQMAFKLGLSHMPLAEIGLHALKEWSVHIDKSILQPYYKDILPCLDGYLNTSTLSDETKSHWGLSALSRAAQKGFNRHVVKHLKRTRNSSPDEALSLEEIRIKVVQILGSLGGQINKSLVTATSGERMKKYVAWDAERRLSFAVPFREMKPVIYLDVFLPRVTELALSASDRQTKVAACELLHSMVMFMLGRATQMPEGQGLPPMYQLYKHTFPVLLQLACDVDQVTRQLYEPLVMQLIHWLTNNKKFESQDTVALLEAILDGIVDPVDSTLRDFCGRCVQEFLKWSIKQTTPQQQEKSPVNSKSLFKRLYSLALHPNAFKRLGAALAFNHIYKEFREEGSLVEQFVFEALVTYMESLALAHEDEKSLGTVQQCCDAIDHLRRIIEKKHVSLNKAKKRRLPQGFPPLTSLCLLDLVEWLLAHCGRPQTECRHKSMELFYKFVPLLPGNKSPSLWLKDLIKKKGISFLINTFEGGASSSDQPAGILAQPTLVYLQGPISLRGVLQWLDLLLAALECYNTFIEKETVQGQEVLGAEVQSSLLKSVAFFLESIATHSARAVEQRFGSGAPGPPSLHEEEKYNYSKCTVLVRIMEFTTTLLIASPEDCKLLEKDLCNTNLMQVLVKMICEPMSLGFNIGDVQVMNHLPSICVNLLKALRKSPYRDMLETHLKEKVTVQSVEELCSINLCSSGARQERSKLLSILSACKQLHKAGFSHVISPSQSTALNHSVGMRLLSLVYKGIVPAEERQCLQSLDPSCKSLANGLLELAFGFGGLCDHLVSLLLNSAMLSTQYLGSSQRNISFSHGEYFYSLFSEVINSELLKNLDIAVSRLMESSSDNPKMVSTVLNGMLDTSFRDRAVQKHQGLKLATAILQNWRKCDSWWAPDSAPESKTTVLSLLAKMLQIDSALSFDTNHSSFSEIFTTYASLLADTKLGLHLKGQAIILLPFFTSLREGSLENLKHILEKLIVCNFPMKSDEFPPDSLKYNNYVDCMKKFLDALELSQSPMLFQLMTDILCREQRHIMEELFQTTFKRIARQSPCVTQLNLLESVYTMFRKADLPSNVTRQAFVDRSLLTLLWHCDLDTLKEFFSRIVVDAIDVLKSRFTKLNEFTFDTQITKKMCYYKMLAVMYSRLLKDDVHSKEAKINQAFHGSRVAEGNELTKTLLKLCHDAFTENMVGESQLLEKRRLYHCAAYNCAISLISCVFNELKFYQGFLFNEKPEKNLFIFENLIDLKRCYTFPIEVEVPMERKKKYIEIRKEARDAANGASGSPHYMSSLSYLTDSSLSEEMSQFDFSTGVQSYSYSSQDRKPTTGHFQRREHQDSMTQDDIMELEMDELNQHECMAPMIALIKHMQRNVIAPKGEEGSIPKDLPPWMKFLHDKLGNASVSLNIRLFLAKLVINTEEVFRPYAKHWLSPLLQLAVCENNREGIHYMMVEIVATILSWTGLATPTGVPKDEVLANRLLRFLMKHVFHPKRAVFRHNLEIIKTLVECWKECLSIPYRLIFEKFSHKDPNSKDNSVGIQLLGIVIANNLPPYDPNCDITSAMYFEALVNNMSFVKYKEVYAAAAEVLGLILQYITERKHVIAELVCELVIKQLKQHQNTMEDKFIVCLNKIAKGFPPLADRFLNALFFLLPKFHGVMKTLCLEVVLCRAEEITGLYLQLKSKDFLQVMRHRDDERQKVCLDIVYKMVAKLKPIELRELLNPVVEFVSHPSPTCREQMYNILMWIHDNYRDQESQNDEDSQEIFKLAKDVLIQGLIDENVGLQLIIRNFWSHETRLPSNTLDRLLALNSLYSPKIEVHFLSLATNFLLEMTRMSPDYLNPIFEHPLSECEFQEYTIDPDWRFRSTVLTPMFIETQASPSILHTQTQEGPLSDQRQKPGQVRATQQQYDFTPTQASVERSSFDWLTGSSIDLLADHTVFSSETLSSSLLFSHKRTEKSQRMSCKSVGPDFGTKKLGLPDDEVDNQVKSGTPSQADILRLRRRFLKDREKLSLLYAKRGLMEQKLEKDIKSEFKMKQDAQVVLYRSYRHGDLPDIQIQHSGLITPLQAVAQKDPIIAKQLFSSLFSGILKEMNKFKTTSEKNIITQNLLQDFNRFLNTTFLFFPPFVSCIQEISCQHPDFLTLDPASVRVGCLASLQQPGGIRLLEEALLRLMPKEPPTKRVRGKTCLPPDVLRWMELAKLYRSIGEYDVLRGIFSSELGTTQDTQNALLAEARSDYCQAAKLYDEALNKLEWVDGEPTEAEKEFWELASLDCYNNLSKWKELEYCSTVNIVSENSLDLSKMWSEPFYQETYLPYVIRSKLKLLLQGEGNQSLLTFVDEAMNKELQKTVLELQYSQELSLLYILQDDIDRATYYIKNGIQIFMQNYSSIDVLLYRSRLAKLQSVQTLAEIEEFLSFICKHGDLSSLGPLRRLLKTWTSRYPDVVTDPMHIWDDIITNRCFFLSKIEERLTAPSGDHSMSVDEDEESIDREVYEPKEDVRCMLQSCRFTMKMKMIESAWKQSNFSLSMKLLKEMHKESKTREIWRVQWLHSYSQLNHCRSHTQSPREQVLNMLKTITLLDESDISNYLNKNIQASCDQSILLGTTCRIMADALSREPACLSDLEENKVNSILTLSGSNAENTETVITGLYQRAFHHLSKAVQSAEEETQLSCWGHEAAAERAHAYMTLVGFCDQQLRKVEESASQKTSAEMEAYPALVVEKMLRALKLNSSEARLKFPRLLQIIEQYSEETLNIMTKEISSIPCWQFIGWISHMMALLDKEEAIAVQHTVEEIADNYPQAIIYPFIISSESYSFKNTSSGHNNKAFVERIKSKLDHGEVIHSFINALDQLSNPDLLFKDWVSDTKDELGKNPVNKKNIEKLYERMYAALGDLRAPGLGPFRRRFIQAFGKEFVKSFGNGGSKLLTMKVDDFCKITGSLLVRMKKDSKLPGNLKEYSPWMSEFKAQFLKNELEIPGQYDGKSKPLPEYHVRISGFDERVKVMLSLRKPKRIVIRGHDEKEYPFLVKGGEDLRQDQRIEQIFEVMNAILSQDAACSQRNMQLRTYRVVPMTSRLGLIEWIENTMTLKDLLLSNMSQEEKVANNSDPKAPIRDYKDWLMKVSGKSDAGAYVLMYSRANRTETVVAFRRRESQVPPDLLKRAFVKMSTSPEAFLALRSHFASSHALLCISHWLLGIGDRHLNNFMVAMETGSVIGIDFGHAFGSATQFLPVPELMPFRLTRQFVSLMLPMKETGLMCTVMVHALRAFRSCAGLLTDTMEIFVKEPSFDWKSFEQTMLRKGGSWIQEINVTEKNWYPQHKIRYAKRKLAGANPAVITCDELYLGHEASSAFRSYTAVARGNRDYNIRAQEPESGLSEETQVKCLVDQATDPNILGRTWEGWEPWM

Which IC50 [1] does the source give for `C[C@H](Nc1ncnc2[nH]cnc12)c1nc2ccc(F)cc2c(=O)n1-c1ccccc1` [GS-9820] here?
Its IC50 is 18.7 µM.

What about the IC50 [2] of the same compound?
Its IC50 is > 10 µM.

And the IC50 [3]?
The IC50 was 1.39 µM.

What about the IC50 [4] of the same compound?
Its IC50 is 5.44 µM.

And the IC50 [5]?
The IC50 was 3.38 µM.

What about the IC50 [6] of the same compound?
The IC50 was > 10 µM.

What about the IC50 [7] of the same compound?
The IC50 was 0.0127 µM.
